According to patent US6458347B1, “Drug complex” (Asahi Kasei Kabushiki Kaisha, priority 1996, dated 2002):
Read-outs that look alike come from different tables or passages of the source.

Columns and labels:
[1] = serum, 37° C.; serum species and time not stated
Method: Each of compounds (24), (26), (28) and (30) (drug complexes) obtained in Example 8 was dissolved in physiological saline so that the concentration thereof in terms of dexamethasone was 80 μg/ml, to thereby obtain four solutions. 50 μl of each of the above-obtained four solutions was individually added to each of 250 μl of mouse serum and 250 μl of human serum, and the amounts of dexamethasone released from the respective compounds at 37° C. were determined as follows.
The recovery and quantitative analysis of dexamethasone in serum were conducted as follows: 250 μl of phosphate buffer (pH 7.4) was added to […] of each of the sera to which the above-mentioned solution was added, to thereby obtain a mixture. To the obtained mixture was added 3 ml of a solution of hydrocortisone acetate (as an internal standard for the below-mentioned HPLC analysis, the concentration of hydrocortisone acetate: 10 ng/ml) in a mixture of acetonitrile and methanol (acetonitrile/methanol=4/1) and subjected to centrifugation (3,000 rpm, 10 minutes, 4° C.). To 700 μl of the resultant supernatant was added 700 µl of distilled water, to thereby obtain a mixture. The obtained mixture was subjected to filtration with a membrane filter (pore size 0.2 μm), and the resultant filtrate was used as a sample for the quantitative analysis of dexamethasone by HPLC under the following conditions. […]
Column: Asahipak […] C18 (4.6×150 mm)
Column temperature: room temperature
The detected wavelength: 254 nm
Mobile phase: Linear gradient
0 min.: 20% aqueous acetonitrile (20% CH3CN/H2O)
20 min.: 50% aqueous acetonitrile (50% CH3CN/H2O)

[2] = Dissolution in physiological saline; assay type: physicochemical; conditions: 1 mg in 10 ml of physiological saline
[3] = tested on: B16 melanoma cells; conditions: 50 mg/kg in terms of paclitaxel, intravenous, six days after administration; paclitaxel 50 mg/kg
Method: Further, a control solution was prepared by dissolving paclitaxel per se into a mixture of ethanol, Cremophore EL (manufactured and sold by Sigma, U.S.A.) and physiological saline. Thus, four types of solutions, namely, three different types of test sample solutions and one control solution were obtained.
Twenty-eight female C57BL/6 mice (six weeks old) were divided into four groups, each consisting of seven mice, and subsequently, B16 melanoma cells were intradermally transplanted to the groin of each of the mice (5×10^6 cells per mouse). After eight days from the transplantation, the above-mentioned four types of solutions were administered to the transplanted mice at the tails thereof intravenously so that the mice belonging to the same group received the administration of the same type of solution. […] With respect to the control solution, the dose of paclitaxel was 50 mg/kg.
(§1) Separately, a group consisting of thirteen mice, which were transplanted with B16 melanoma cells in the same manner as mentioned above, was provided. Each of the mice of such group received the administration of physiological saline, to thereby obtain a non-treated group of mice.
The tumor volume was determined as follows. The external major and minor diameters (a and b, respectively) (each in mm) of the tumor were measured, and the tumor volume (V) was obtained according to the following formula. [formula]

[4] = tested on: colon 26 tumor cells; conditions: 50 mg/kg in terms of paclitaxel, intravenous, repeated every 4 days; paclitaxel 50 mg/kg
Method: (§2) Further, a control solution was prepared by dissolving paclitaxel per se into a mixture of ethanol, Cremophore EL (manufactured and sold by Sigma, U.S.A.) and physiological saline.
(§3) With respect to the control solution, the dose of paclitaxel was 50 mg/kg.
Each of the mice of such group received the administration of only physiological saline in the same manner as in the case of the administration of the test sample solution, to thereby obtain a non-treated group of mice.
Evaluation was made of the antitumor activity in terms of the change (with the lapse of time) of the average tumor volume (%).
(§4) The tumor volume was determined as follows. […] [formula]

[5] = tested on: B16 melanoma cells; conditions: 50 mg/kg in terms of paclitaxel, intravenous, six days after administration; paclitaxel 50 mg/kg; remark: listed apart in the source
Method: as §2, §3, §1, §4

Compound: CCC(=O)N[C@H](C(=O)OCC(=O)[C@@]1(O)[C@H](C)C[C@H]2[C@@H]3CCC4=CC(=O)C=C[C@]4(C)[C@@]3(F)[C@@H](O)C[C@@]21C)[C@@H](C)CC [compound (24), 21-propanoylisoleucyl-dexamethasone]
- dexamethasone introduced into the compound that was released [1]: ≤ 10%

Compound: CCC(=O)NCC(=O)OCC(=O)[C@@]1(O)[C@H](C)C[C@H]2[C@@H]3CCC4=CC(=O)C=C[C@]4(C)[C@@]3(F)[C@@H](O)C[C@@]21C [compound (26), 21-propanoylglycyl-dexamethasone]
- dexamethasone introduced into the compound that was released [1]: approximately 95%

Compound: CCC(=O)N[C@@H](C)C(=O)OCC(=O)[C@@]1(O)[C@H](C)C[C@H]2[C@@H]3CCC4=CC(=O)C=C[C@]4(C)[C@@]3(F)[C@@H](O)C[C@@]21C [compound (28), 21-propanoylalanyl-dexamethasone]
- dexamethasone introduced into the compound that was released [1]: approximately 70%

Compound: CCC(=O)OCC(=O)[C@@]1(O)[C@H](C)C[C@H]2[C@@H]3CCC4=CC(=O)C=C[C@]4(C)[C@@]3(F)[C@@H](O)C[C@@]21C [compound (30), 21-propanoyl-dexamethasone]
- dexamethasone introduced into the compound that was released [1]: ≥ 98%

Compound: CC(=O)O[C@H]1C(=O)[C@@]2(C)[C@H]([C@H](OC(=O)c3ccccc3)[C@]3(O)C[C@H](OC(=O)[C@H](O)[C@@H](NC(=O)c4ccccc4)c4ccccc4)C(C)=C1C3(C)C)[C@]1(OC(C)=O)CO[C@@H]1C[C@@H]2O [paclitaxel]
- dissolution of paclitaxel per se [2]: could not be dissolved completely

Compound: carboxymethylated dextran-2′-Ala-paclitaxel [compound (7)]
- antitumor activity (relative average tumor volume) as compared to paclitaxel per se [3]: excellent

Compound: carboxymethylated dextran-2′-Gly-Gly-Phe-Gly-paclitaxel [compound (33)]
- antitumor activity (change of average tumor volume with time) as compared to paclitaxel per se [4]: significantly excellent
- antitumor activity (relative average tumor volume) as compared to paclitaxel per se [5]: significantly excellent

Compound: carboxymethylated dextran-2′-Gly-paclitaxel [compound (3)]
- antitumor activity (relative average tumor volume) as compared to paclitaxel per se [3]: significantly excellent

Compound: carboxymethylated dextran-2′-Ile-paclitaxel [compound (15)]
- antitumor activity (relative average tumor volume) as compared to paclitaxel per se [3]: relatively weak
